Earlier results as cited in patent US20260324642A1, “COMPOSITION, PEST CONTROL PREPARATION, AND PEST CONTROL METHOD” (priority 2023, published 2026).

Conditions: known activity, background art

Compound: C/C=C(/C)C(=O)O[C@H]1CC[C@@]2(C)[C@@H]3CC[C@H]4[C@]5(O)C[C@H](O)[C@@]6(O)[C@@H](CN7C[C@@H](C)CC[C@H]7[C@@]6(C)O)[C@]5(O)C[C@@]42O[C@]13O [Cevadine]
- insecticidal activity: known to have insecticidal activity

Compound: COc1ccc(C(=O)O[C@H]2CC[C@@]3(C)[C@@H]4CC[C@H]5[C@]6(O)C[C@H](O)[C@@]7(O)[C@@H](CN8C[C@@H](C)CC[C@H]8[C@@]7(C)O)[C@]6(O)C[C@@]53O[C@]24O)cc1OC [Veratridine]
- insecticidal activity: known to have insecticidal activity
